From ChEMBL document CHEMBL1201862, “PubChem BioAssay data set” (2004)
Activity calls are given as the source filed them.

Assays:
Cytochrome P450 2D6 = Cytochrome P450 2D6 (Homo sapiens, UniProt P10635);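 note: CYP2D6 member of a cytochrome P450 panel assay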
Cytochrome P450 3A4 = Cytochrome P450 3A4 (Homo sapiens, UniProt P08684);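 note: CYP3A4 tested as one member of a cytochrome P450 panel screen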
Cytochrome P450 2C19 = Cytochrome P450 2C19 (Homo sapiens, UniProt P33261); assay: Cytochrome panel assay with activity outcomes. Panel member name: p450-cyp2c19 Compounds with AC50 equal or less than 10 uM are considered active; format: functional; details: read-out: AC50
Large T antigen = Large T antigen (Simian virus 40, UniProt P03070); format: functional, Betapolyomavirus macacae;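 note: Confirmatory-stage PubChem screen for compounds that inhibit SV40 T antigen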
[1] = molecular target: T1, Corticotropin-releasing factor receptor 2/Corticotropin-releasing factor-binding protein (Homo sapiens, UniProt P24387+Q13324); assay: activators of CRF receptor 2 with binding protein – uHTS hits, confirmation (AID 602473); format: functional; details: read-out: EC50_Mean
T1 sequence (Q13324 whole entry): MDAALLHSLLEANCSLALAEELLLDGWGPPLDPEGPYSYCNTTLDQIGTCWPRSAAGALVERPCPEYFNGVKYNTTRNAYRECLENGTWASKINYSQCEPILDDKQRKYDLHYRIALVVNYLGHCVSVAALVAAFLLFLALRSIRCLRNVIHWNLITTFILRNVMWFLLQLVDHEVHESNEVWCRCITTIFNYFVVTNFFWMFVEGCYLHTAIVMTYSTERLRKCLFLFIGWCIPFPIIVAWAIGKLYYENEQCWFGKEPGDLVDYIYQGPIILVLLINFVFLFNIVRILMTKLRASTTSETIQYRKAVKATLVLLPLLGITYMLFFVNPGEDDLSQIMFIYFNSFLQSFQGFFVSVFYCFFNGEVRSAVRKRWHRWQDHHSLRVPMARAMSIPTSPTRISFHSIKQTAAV
T1 sequence (P24387 whole entry): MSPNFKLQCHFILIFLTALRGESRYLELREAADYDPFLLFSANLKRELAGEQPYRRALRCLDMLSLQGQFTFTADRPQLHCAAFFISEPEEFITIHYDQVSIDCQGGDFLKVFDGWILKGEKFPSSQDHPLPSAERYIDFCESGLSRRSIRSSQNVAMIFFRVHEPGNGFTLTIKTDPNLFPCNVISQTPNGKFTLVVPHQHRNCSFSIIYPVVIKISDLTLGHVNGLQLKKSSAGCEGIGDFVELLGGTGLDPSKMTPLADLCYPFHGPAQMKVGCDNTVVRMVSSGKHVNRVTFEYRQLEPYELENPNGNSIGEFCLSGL

[2] = molecular target: T2, RNA-binding protein pos-1 (Caenorhabditis elegans, UniProt G5EF15); assay: disruptors of C. elegans POS-1 RNA interaction – biochemical, fluorescence polarization, dose response (AID 1964);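 note: purified POS-1 fused to maltose binding protein made in E. coli; potency of compounds blocking POS-1 binding to fluorescent RNA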
T2 sequence (G5EF15 whole entry): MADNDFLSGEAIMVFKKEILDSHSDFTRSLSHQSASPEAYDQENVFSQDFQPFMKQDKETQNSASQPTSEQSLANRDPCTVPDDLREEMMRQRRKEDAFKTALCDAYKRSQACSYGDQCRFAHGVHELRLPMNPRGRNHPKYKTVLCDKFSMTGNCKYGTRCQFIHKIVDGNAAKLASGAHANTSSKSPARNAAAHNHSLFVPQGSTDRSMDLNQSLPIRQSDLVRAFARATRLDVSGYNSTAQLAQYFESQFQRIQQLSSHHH

[3] = molecular target: T3, Zinc finger protein mex-5 (Caenorhabditis elegans, UniProt Q9XUB2); assay: potency of MEX-5 RNA-binding blockers – biochemical, C. elegans, fluorescence polarization, dose response (AID 1960)
T3 sequence (Q9XUB2 whole entry): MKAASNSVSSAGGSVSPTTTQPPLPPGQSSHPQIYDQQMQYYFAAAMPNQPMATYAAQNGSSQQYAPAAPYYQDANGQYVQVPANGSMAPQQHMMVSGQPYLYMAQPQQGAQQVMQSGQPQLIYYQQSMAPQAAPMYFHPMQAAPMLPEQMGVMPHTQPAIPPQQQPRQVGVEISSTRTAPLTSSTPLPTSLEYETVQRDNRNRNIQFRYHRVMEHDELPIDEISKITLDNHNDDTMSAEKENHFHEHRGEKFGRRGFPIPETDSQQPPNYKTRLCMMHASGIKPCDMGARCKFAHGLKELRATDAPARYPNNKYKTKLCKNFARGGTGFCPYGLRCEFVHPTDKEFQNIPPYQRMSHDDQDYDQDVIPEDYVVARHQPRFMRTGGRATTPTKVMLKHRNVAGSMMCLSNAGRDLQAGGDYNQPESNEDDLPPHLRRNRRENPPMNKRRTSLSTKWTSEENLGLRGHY

Protein RecA = molecular target: T4, Protein RecA (Mycobacterium tuberculosis, UniProt P9WHJ3); assay: Fluorescence Cell-Free Homogeneous Dose Retest to Identify Inhibitors of RecA-Intein Splicing Activity. [Related pubchem assays (depositor defined):AID2097, AID2223, AID489010, AID492950]; format: functional
T4 sequence (P9WHJ3 whole entry): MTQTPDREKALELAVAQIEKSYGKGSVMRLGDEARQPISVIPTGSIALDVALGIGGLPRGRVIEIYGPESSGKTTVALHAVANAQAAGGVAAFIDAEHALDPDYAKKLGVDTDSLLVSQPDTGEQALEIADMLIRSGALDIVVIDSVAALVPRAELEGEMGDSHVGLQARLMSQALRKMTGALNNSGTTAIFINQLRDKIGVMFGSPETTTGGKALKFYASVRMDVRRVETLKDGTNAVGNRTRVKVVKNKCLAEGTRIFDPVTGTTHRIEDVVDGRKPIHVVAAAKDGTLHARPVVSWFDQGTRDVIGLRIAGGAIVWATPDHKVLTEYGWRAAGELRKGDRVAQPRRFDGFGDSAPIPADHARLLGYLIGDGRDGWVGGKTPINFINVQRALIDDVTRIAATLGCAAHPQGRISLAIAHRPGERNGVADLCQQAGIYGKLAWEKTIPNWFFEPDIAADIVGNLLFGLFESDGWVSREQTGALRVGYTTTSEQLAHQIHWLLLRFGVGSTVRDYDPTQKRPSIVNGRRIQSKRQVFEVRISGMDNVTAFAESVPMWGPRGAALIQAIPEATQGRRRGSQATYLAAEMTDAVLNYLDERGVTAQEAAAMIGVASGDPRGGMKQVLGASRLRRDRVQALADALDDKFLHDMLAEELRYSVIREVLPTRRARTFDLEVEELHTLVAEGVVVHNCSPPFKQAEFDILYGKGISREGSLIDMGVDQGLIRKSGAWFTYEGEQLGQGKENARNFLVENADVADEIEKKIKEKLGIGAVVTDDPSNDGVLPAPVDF

Cytochrome P450 2C9 = Cytochrome P450 2C9 (Homo sapiens, UniProt P11712)
[4] = molecular target: T5, Replicative DNA helicase DnaB (Mycobacterium tuberculosis, UniProt P9WMR3); assay: DnaB intein splicing inhibitors, dose response, biochemical, cell-free fluorescence (AID 449749); format: functional
T5 sequence (P9WMR3 whole entry): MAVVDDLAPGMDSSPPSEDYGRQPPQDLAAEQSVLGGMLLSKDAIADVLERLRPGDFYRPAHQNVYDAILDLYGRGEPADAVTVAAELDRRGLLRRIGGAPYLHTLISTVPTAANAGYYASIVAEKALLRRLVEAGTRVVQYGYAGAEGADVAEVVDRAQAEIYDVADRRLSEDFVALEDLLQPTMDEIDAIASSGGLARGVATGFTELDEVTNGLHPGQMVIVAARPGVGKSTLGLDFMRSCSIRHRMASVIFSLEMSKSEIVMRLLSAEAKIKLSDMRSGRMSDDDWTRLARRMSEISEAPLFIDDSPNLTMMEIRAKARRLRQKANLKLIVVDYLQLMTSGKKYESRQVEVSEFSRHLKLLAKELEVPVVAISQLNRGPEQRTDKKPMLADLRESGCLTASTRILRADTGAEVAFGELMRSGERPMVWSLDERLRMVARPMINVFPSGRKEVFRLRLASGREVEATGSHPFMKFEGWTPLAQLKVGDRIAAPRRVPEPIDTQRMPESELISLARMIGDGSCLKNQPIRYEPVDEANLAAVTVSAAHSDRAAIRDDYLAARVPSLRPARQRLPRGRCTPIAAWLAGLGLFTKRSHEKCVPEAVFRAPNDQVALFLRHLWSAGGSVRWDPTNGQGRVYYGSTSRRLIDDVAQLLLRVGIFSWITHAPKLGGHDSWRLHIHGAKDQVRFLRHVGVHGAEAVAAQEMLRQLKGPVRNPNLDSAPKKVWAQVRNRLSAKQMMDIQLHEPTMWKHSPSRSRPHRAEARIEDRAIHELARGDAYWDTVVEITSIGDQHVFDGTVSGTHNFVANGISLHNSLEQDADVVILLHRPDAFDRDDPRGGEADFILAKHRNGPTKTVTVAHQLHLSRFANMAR

[5] = molecular target: T6, Rac GTPase-activating protein 1 (Homo sapiens, UniProt Q9H0H5); assay: blockers of MgcRacGAP-driven Rac1 GTP hydrolysis – biochemical, ADP Hunter fluorescence, primary and confirmatory, confirmation (AID 624330); format: functional
T6 sequence (Q9H0H5 whole entry): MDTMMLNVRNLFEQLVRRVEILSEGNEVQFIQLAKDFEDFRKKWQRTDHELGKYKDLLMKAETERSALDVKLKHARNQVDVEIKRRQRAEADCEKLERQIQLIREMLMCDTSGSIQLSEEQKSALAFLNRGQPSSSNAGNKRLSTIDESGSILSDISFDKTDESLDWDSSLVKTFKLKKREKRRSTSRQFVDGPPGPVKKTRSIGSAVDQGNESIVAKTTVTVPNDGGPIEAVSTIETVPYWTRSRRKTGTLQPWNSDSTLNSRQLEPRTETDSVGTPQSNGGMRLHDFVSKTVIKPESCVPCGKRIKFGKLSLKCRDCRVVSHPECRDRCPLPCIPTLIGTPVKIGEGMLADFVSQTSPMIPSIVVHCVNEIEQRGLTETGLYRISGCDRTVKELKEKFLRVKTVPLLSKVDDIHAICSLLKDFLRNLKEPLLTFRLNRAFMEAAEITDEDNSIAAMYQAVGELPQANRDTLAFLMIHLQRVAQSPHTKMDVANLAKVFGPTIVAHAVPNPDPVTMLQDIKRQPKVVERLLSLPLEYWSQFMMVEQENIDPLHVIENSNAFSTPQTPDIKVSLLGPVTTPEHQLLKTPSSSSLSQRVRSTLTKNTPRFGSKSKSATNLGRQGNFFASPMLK

Cytochrome P450 2C19, sequence (P33261 whole entry): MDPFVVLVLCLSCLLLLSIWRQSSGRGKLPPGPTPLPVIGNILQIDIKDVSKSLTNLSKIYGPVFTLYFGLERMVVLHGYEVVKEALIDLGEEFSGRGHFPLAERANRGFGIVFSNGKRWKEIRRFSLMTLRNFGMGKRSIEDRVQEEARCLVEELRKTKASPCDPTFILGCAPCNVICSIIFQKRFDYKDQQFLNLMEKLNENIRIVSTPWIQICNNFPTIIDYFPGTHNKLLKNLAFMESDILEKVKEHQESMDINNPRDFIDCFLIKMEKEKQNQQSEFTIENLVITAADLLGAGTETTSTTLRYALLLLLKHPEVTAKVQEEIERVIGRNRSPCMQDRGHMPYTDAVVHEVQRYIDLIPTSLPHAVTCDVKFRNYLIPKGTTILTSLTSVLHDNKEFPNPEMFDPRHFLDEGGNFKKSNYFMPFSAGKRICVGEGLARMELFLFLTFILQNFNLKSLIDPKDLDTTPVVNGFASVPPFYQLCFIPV
Cytochrome P450 2D6, sequence (P10635 whole entry): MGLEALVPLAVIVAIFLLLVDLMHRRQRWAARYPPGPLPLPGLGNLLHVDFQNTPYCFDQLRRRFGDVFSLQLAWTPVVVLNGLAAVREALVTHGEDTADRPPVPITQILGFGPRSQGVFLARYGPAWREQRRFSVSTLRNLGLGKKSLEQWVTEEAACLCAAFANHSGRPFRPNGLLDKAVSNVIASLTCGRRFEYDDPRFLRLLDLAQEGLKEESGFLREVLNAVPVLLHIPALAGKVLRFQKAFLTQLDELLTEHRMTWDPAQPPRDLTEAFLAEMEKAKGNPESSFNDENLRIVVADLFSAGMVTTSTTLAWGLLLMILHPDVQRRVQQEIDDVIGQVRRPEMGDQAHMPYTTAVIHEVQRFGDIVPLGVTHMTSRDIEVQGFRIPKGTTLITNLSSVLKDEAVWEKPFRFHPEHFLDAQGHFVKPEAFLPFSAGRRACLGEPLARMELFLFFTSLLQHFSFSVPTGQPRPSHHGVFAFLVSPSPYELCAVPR
Large T antigen, sequence (P03070 whole entry): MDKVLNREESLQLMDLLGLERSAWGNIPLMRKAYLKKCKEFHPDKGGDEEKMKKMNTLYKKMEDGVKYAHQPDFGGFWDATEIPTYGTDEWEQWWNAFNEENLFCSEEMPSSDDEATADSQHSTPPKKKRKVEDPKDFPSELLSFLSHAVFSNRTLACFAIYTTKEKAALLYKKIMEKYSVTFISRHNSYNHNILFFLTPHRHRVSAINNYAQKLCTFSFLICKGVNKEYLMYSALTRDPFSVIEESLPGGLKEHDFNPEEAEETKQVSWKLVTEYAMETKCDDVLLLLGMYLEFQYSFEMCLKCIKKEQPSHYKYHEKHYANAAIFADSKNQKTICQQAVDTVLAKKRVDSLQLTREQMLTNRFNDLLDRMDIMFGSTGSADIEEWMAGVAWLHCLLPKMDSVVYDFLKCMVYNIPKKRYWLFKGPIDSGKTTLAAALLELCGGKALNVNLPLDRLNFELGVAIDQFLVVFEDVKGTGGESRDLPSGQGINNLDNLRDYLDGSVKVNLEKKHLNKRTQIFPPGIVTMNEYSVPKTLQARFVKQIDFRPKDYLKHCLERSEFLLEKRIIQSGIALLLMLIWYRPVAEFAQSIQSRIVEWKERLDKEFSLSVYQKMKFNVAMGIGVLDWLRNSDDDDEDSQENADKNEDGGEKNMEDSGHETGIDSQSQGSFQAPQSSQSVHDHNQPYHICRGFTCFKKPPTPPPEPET
Cytochrome P450 3A4, sequence (P08684 whole entry): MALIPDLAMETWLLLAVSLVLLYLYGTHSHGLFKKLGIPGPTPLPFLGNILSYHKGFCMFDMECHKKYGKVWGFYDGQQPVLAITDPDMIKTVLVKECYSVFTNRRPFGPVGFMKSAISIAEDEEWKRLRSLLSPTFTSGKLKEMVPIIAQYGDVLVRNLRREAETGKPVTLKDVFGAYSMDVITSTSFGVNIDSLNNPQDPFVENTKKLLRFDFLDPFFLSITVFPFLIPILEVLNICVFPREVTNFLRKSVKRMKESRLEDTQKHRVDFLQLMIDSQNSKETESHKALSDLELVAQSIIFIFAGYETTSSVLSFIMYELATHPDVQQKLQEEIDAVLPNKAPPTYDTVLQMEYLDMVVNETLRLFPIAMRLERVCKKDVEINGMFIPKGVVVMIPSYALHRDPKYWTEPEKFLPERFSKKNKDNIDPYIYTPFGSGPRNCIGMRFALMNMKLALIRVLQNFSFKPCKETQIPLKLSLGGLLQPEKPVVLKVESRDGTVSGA
Cytochrome P450 2C9, sequence (P11712 whole entry): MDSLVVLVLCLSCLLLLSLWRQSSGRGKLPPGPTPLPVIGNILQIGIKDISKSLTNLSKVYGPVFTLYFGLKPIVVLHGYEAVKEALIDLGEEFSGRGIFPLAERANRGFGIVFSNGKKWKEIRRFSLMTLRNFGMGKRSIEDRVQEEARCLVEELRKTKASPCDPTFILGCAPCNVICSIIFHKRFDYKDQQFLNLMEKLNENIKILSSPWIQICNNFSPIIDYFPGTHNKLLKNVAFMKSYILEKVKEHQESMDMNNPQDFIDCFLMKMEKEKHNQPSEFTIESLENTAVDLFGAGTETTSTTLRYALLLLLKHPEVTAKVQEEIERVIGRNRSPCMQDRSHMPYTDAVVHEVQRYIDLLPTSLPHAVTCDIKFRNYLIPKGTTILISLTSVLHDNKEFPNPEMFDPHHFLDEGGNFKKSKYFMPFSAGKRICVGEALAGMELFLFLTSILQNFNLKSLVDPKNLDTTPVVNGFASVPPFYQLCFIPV

## CCOC(=O)CC(=O)CSc1n[nH]c2c3ccccc3nc-2n1
Cytochrome P450 2D6
  AC50: 3.55 µM (inconclusive)
Cytochrome P450 3A4
  AC50: 2.51 µM (inconclusive)

## CNc1ncnc2ccc(-c3cccc(NS(C)(=O)=O)c3)cc12
Cytochrome P450 2C19
  AC50: 20 µM (inconclusive)
Cytochrome P450 2D6
  AC50: 39.8 µM (inconclusive)

## CCCCC(=O)NCCc1c(Cc2ccccc2)[nH]c2ccccc12
Cytochrome P450 2C19
  AC50: 20 µM (inconclusive)
Cytochrome P450 2D6
  AC50: 39.8 µM (inconclusive)

## O=C1CC(=O)N(Cc2ccco2)C(=S)N1
Large T antigen
  IC50: 55.5 µM (active)

## CC1CCCN(c2ccc(N)cc2C(N)=O)C1 (configuration not stated)
Large T antigen
  IC50: 44.6 µM (active)

## COc1cc(/C=C2/C(C)=C(C#N)c3nc(N)c(C#N)c(C)c32)ccc1OCC(=O)O
Large T antigen
  IC50: 89.5 µM (active)

## C#CCOC(=O)NC(/C=C/CCCC)c1ccccc1 (configuration not stated)
Cytochrome P450 2C19
  AC50: 25.1 µM (inconclusive)
Cytochrome P450 2D6
  AC50: 20 µM (inconclusive)

## COc1cccc(C(=O)NC2CC3CCCC(C2)N3CC(=O)Nc2ccc(N(C)C)cc2)c1 (configuration not stated)
Large T antigen
  IC50: 6.24 µM (active)

## O=C(O)C(=O)/C(=C\c1cccc2ccccc12)c1ccc2ccccc2n1
[1]
  EC50: 7.6 µM (active)
[2]
  EC50: 164 µM (active)
[3]
  EC50: 34.2 µM (active)

## CCCSc1nnc2nc3c(nn12)c1ccccc1n3C
[2]
  EC50: > 300 µM (not active)
[3]
  EC50: 76.6 µM (active)

## COc1cc(OC)c(C2CC(=O)N3CN(c4ccccc4C)CSC3=C2C#N)cc1OC (configuration not stated)
Large T antigen
  IC50: 54.8 µM (active)

## O=C(Nc1ccc(O)cc1)c1ccc2c(c1)C(=O)N(N1C(=O)c3ccccc3C1=O)C2=O
Large T antigen
  IC50: 21.4 µM (active)

## COc1ccc(NC2CCCN(C(=O)CCCn3cncn3)C2)cc1 (configuration not stated)
Large T antigen
  IC50: 52.6 µM (active)

## O=C(CSCc1c(Cl)cccc1Cl)NCC1CCCO1 (configuration not stated)
[2]
  EC50: > 300 µM (not active)
[3]
  EC50: > 300 µM (not active)

## CCC(C)N1C(=O)/C(=C\NNc2nc3c(c(=O)n(C)c(=O)n3C)n2C)C(=O)NC1=S (configuration not stated)
[2]
  EC50: > 300 µM (not active)
[3]
  EC50: 38.6 µM (active)

## N#CC(C#N)=Cc1ccc(-c2ccccc2)o1
[2]
  EC50: 6.78 µM (inconclusive)
[3]
  EC50: 22.5 µM (inconclusive)

## Cc1cc(/C=C2\C(=O)NC(=O)N(Cc3ccco3)C2=O)c(C)n1-c1ccc(C(=O)O)cc1
[3]
  EC50: > 300 µM (inconclusive)

## O=C(Nc1cccc(OC(=O)c2ccco2)c1)c1ccco1
Protein RecA
  EC50: 10.1 µM (active)
Cytochrome P450 2C9
  AC50: 25.1 µM (inconclusive)
[4]
  AC50: 21.4 µM (active)

## CN1C(=O)/C(=C\c2ccc(N3CCCCC3)o2)C(=O)NC1=S
[2]
  EC50: > 300 µM (not active)
[3]
  EC50: > 300 µM (not active)

## FC(F)(F)c1nc(N2CCCC2)ncc1-c1nnnn1-c1ccccc1
Cytochrome P450 2D6
  AC50: 12.6 µM (inconclusive)

## CC(C)(C)NS(=O)(=O)c1ccc(NC(=O)NC2CCCCC2)cc1
Cytochrome P450 2C19
  AC50: 25.1 µM (inconclusive)
Cytochrome P450 2D6
  AC50: 17.8 µM (inconclusive)

## Cc1cc(C)cc(NS(=O)(=O)c2ccc3ncc(C(=O)N4CCc5ccccc54)c(O)c3c2)c1
[1]
  EC50: > 53 µM (inactive)

## Cc1cc2c3c(c1C)C1(C(=O)N3C(C)(C)CC2C)C(C#N)=C(N)OC2=C1C(=O)CC(C)(C)C2 (configuration not stated)
[2]
  EC50: > 300 µM (not active)
[3]
  EC50: > 300 µM (not active)

## Sc1nnc(COc2ccccc2)n1/N=C/C=C/c1ccco1
Large T antigen
  IC50: > 100 µM (active)

## CCOc1cc(/C=N/Nc2ncnc(Cl)c2N)ccc1O
[5]
  IC50: 25.2 µM (active)
Large T antigen
  IC50: 6.12 µM (active)

## COc1cc(C=C2C(=O)NC(=O)NC2=O)ccc1O
Large T antigen
  IC50: 28 µM (active)
